Legend:
[1] = biological target: T1, human TLR4 (Homo sapiens, UniProt O00206); assay type: cell-based
T1 construct: host or cells: HEK 293

[2] = tested on: morphine analgesia in rats; assay: Potentiation of intrathecal morphine analgesia, Hargreaves test; assay type: in vivo, rat; details: about 20 μg co-administered with morphine intrathecally, FIG. 6B

T1 sequence (O00206 24-839): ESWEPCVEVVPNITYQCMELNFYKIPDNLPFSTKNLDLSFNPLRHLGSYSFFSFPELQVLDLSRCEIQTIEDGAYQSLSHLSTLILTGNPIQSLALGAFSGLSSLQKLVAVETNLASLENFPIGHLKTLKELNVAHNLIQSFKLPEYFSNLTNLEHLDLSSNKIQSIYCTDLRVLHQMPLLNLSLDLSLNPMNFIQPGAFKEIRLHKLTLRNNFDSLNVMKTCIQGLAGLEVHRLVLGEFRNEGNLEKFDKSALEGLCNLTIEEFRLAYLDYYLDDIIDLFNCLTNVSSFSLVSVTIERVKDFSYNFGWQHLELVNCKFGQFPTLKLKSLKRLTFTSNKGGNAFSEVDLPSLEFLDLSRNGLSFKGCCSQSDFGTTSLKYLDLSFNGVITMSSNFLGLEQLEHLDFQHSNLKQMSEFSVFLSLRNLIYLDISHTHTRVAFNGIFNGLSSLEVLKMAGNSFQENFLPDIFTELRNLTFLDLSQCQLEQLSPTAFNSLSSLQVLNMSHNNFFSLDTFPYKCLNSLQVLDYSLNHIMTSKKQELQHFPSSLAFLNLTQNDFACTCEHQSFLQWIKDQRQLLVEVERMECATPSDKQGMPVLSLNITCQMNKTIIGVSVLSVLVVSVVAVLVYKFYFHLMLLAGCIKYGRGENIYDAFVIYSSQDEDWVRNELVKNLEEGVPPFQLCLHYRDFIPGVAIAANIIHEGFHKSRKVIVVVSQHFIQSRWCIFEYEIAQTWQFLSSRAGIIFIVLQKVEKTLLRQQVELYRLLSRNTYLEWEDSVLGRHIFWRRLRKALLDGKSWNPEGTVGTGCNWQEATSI
T1 sequence (Q9Y6Y9 17-160 partner limits assumed): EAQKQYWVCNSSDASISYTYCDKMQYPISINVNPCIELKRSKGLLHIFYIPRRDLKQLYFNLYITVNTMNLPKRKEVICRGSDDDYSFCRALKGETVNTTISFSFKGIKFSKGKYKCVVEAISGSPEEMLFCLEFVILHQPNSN

`CCC(=O)C(CC(C)N(C)C)(c1ccccc1)c1ccccc1` (centres unmarked) [methadone] was tested, and the TLR4 agonism [1] was “TLR4 agonists”.

With `O=c1c(O)c(-c2ccc(O)c(O)c2)oc2cc(O)cc(O)c12` [quercetin] the “potentiation of morphine analgesia” value [2] was “significant potentiation”.

In the case of `CN1CC[C@]23c4c5ccc(O)c4O[C@H]2[C@@H](O)C=C[C@H]3[C@H]1C5` [morphine], the TLR4 agonism [1] is reported as “TLR4 agonists”.

In the case of `COc1ccc2c3c1O[C@H]1C(=O)CC[C@@]4(O)[C@@H](C2)N(C)CC[C@]314` [oxycodone], the TLR4 agonism [1] is reported as “TLR4 agonists”.

With `CCOC(=O)C1(c2ccccc2)CCN(C)CC1` [pethadine/meperidine] the TLR4 agonism [1] was “TLR4 agonists”.
